Measurements from patent publication US6399580B1, “Methods and compositions for stimulating tissue growth and epithelial moisturization” (The Regents of the University of California, priority 1994, dated 2002).

Key:
[1] = system: murine epidermis; experiment: Total epidermal DNA content after topical CBE; assay type: in vivo, mouse
Procedure: In addition to measuring DNA synthesis by [^3H]-thymidine incorporation, total epidermal DNA content was determined after applications of CBE. 100 μl of epidermal homogenate was obtained from mice and stored at −70° C. Samples were diluted with Hoechst buffer (pH 7.4) in duplicate. Each sample was brought up to 1 ml with Hoechst buffer. 1 ml of bisbenzimadazole (diluted 1:1000 with dist H2O) was added and samples were vortexed. Standards were prepared using 134 μg/ml calf thymus DNA diluted 1:10 with Hoechst buffer. Final concentration of DNA ranged from 0.067 to 0.335 μg. All samples and standards were covered for 2 hours and absorbance at […] was determined (LaBarca, C. and Paigan (1980) Anal. Biochem. 102:344-352).

[2] = system: murine epidermis; experiment: Epidermal DNA synthesis, [3H]-thymidine incorporation in vivo; set-up: species or system mouse
Procedure: To assess the effects of a topical β-glucocerebrosidase inhibitor, conduritol-B-epoxide (CBE) in epidermal DNA synthesis two slightly different dosage protocols have been employed. In all cases, mice were treated topically with 20 μl to 40 μl of 250 nmol/μl CBE bid for 2-5 days on the right flank. On the last day, the mice were injected intraperitoneally with ^3H-thymidine (1 μCi/G body weight) diluted 1:10 in 100-200 μl isotonic NaCl. After one hour the mice were sacrificed. Whole skin was excised and subcutaneous fascia and fat were removed by scraped. Skin samples were placed dermis side downward onto 10 mM EDTA in phosphate buffered saline (PBS-CMF; pH 7.4) and incubated at 37° C. for 40 min. The skin was blotted dry with a tissue and epidermis removed by scraping with a surgical blade. The epidermis was minced into small pieces and placed in microcentrifuge vials. Samples were immediately snap frozen and stored in liquid nitrogen until immediately prior to preparation of the epidermal homogenates. 300 μl of 10 mM EDTA in PBS-CMF (pH 7.4) was added to all samples which then underwent tissue homogenization using Polytron (15 sec, ×2 on ice. Polytron tip was rinsed between each homogenization with 400 μl 10 mM EDTA in PBS-CMF. Rinses were combined with same original samples. Samples were sonicated twice for 10 sec on ice. 100 μl of 20% TCA was added and left for 10 min at 4° C. Samples were centrifuged at 2000×g at 4° C. for 5 min. The supernatant was discarded. 500 μl of 5% TCA was added and the samples were centrifuged at 2000×g at 4° C. for 5 min. The supernatant was discarded and this step was repeated again. The precipitate was resuspended in 1ml of 1N NaOH and vortexed. 400 μl or NaOH plus 400 μl of 1N HCl with 8ml Ecolume was used as a background blank. Vials were counted the following day.
We next determined whether the topical administration of structurally similar but less efficient β-glucosidase inhibitors would induce epidermal hyperproliferation. Animals were treated topically twice daily with either Conduritol-B-epoxide, Conduritol B (CB), or deoxynojirimycin (dNJM), each at 40 μl of 250 nmol/μl twice daily, as described in Example 10. After 24 hours, [^3H]-thymidine was injected intraperitoneally and incorporation of thymidine into DNA was determined (FIG. 26 A&B). […] This reduced activity is a result of the relative availability of these inhibitors to in vivo tissues.
Animals were treated as described in Example 10.
We next determined whether occlusion with a vapor-impermeable membrane would enhance the effects of a β-glucocerebrosidase inhibitor on epidermal DNA synthesis. […] After 24 hrs animals were injected with [^3H]-thymidine, and incorporation into DNA was determined (Proksch, et. al., J. Clin. Invest. 87:1668-1673, 1991).

[3] = system: cultured human keratinocytes; experiment: [3H]-thymidine incorporation and DNA content in cultured human keratinocytes; assay type: cell-based; conditions: 24 hours, FIG. 12
Procedure: To determine the ability of exogenous glucosylceramides (GlcCER) to stimulate epidermal proliferation, we applied various concentrations of GlcCER to cultural human keratinocytes (third passage). Keratinocytes were isolated from human neonatal foreskins by a modification of the method of Pittelkow, M. R. and Scott, R. E. ( (1986) Proc. Mayo Clin. 61:771-777) Cells were added to 100 mm plastic Petri dishes at a density of 1 to 2×10^4 cells/cm^2, and grown initially in 10mls of Keratinocyte Growth Medium (KGM) (Clonetics, San Diego, Calif.) with 0.07 mM calcium. The cultures were maintained at 35° C. under 5% CO2 in air, with medium changes performed three times weekly. After the cells reached 70%-80% confluence, they were switched to KGM medium containing 1.2 mM calcium, and harvested at one week post-confluence. GlcCER was added for the last 24 hours of culture and ^3H-thymidine (1 μCi/ml) was added one-to-three hours prior to harvesting of cells for measurement of DNA synthesis and DNA content. (Proksch, E., et al., J. Clin. Invest. 87:1668-1673 (1991).
Using the method described in Example 5, incorporation of [^3H]-thymidine and total DNA content were measured in cultured human keratinocytes (CHK) grown in serum-free keratinocyte growth medium (KGM) supplemented with 0.07 mM .calcium. Cultured cell were further supplemented as indicated, with ceramide (Cer; 5 or 10 μM), glucosylceramide (GlcCER; 1.25 or 2.5 μM), or a combination of ceramide and glucosylceramide (10 and 1.25 μM, respectively).
CHK cells were grown in serum-free KGM supplemented both with 0.07 mM calcium and 10 μM ceramide (CER). Increasing concentrations of glucosylceramide were added (2.5 to 10 μM), and both [^3H]-thymidine (1 μCi/ml) and [^14C]-leucine (1 μCi/ml) incorporation assays were performed.
CHK cells were grown (as in Example 6)in serum-free KGM (0.07 mM calcium) and supplemented with increasing concentrations of ceramide (CER) alone (dark bars), glucosylceramide (GlcCer) alone (back row), or the combination of ceramide (10 μM) with increasing glucosylceramide (front row). […] Glucosylceramide alone again stimulated thymidine incorporation (>20%) at low concentrations (1.25 and 2.5 μM).
CHK cells were grown (as in Example 6) in serum-free KGM ([…]) supplemented with glucosylceramide (GlcCER) alone, or in combination with the β-glucocerebrosidase-inhibitor, CBE (3 or 10 μM) (FIG. 12). Incorporation of [^3H]-thymidine was measured at 24 hours following supplementation, and values are reported as percent of unsupplemented controls (mean ±S.D.; n>6). […] A low CBE concentration (3 μM) was ineffective.

With O[C@H]1[C@H](O)[C@@H](O)[C@@H]2O[C@@H]2[C@@H]1O (racemic) [CBE, conduritol-B-epoxide] the “DNA concentration, higher than untreated samples” value ([1]; 24 hours following CBE treatment, FIG. 20 & 21) was 6-81%, the “DNA concentration, higher than untreated samples” value ([1]; 3 days of CBE-treatment, FIG. 19) was 45-113% and the “DNA concentration, higher than untreated skin samples” value ([1]; 5 days of CBE-treatment, FIG. 18) was 46-331%. The “DNA synthesis, CBE, GlcCER and occlusion” value ([2]; latex wrap, 24 hrs) was “increased DNA synthesis”, the “epidermal DNA synthesis ([3H]-thymidine incorporation)” value ([2]; topical 40 μl of 250 nmol/μl twice daily, after 24 hours) was “potent stimulation” and the “DNA synthesis rates, CBE+occlusion vs CBE alone” value ([2]; water-vapor impermeable latex wrap, 24 hrs, 4 separate studies) was “equivalent or higher”. The “inhibition of thymidine incorporation caused by higher glucosylceramide concentrations” value ([3]; CBE 3 μM with GlcCER) was “ineffective” and the “inhibition of thymidine incorporation caused by higher glucosylceramide concentrations” value ([3]; CBE 10 μM with GlcCER) was “blocked the inhibition”.
